According to patent US11377423B2, “Inhibitors of histone deacetylase” (The Broad Institute, Inc., priority 2012, dated 2022):

Legend:
HDAC3 = HDAC3 (Homo sapiens (Human), UniProt O15379)
HDAC1 = HDAC1 (Homo sapiens (Human), UniProt Q13547); assay: Kinetics of the inhibition of HDAC1; conditions: HDAC1 residence
HDAC1, sequence (Q13547 whole entry): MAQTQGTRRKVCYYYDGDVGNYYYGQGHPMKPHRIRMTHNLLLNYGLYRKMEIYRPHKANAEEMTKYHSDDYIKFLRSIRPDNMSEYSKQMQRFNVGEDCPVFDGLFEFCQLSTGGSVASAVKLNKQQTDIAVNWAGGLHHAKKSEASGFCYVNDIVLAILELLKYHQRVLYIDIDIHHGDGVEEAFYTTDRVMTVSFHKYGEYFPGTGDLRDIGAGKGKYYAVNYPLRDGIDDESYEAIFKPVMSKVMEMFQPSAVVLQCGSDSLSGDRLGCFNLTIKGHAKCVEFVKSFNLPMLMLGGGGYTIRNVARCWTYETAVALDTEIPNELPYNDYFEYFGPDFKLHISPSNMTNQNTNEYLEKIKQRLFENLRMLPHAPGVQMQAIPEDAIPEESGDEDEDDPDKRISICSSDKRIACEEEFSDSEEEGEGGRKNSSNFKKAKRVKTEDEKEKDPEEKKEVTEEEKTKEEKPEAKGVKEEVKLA
Procedure: HDAC1 inactivation kinetic constant was determined by curve-fitting of the plot to a first-order rate equation.

HDAC3, sequence (O15379 whole entry): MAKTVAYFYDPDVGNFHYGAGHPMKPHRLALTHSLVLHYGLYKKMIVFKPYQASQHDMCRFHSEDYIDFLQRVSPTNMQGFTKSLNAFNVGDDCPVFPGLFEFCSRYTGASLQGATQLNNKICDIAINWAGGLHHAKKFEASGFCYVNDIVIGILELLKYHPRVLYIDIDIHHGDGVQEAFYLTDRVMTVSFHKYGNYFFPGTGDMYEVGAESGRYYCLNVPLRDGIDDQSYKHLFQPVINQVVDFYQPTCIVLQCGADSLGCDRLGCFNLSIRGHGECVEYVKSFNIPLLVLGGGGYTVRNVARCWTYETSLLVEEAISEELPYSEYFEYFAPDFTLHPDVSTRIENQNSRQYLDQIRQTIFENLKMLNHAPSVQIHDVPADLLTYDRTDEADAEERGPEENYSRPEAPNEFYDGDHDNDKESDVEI
HDAC3, sequence (Q9Y618 395-489 partner): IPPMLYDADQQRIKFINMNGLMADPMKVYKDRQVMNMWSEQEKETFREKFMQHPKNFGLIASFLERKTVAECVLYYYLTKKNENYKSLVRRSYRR

O=C(CCCCCCC(=O)Nc1ccccc1)NO [SAHA, N1-hydroxy-N8-phenyl-octanediamide, reference compound]
T1/2 (HDAC3): <4 min
T1/2 (HDAC1): <4 min
